# Assay results from patent publication US7638535B2, “4-(aminomethyl)-piperidine benzamides as 5HT4-antagonists” (Janssen Pharmaceutica N.V., priority 2003, dated 2009).
# Target: T1, h5-HT4b (Homo sapiens, UniProt Q13639)
# T1 construct: expressed in transfected cells; host or cells: HEK 293 (clone 9), membrane preparation
# Assay: 5HT4 antagonism: [3H]GR113808 binding to membranes of h5-HT4b-HEK 293 clone 9 cells
# Details: displacement of [3H]GR113808 0.1 nM, h5-HT4b-HEK 293 membranes, 30 min at 25° C.; read-out: pIC50 (5HT4 antagonistic data) (converted)
# In short: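 Membranes from h5-HT4b-HEK 293 clone 9 cells were incubated with [3H]GR113808 (0.1 nM as added) in 50 mM HEPES-NaOH pH 7.4 for 30 min at 25 °C. Non-specific binding was defined with a 5-HT4 agonist. Bound radioligand was separated by filtration over PEI-soaked GF/B filters.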
# T1 sequence (Q13639 whole entry): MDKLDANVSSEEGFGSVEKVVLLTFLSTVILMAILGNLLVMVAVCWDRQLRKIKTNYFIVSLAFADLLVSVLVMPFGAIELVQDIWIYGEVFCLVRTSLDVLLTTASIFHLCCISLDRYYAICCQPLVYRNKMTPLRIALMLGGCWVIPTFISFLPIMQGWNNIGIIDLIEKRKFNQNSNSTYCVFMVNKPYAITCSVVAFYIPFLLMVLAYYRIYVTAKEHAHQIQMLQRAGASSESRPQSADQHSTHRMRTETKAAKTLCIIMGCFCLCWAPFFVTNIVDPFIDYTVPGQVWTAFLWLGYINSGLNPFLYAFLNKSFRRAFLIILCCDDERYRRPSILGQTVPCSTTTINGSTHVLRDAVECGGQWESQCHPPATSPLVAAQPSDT
row,SMILES,IC50
1,CC(C)OCCCN1CC[C@@H](CNC(=O)c2cc(N)c(Cl)c3c2OCCCO3)[C@H](O)C1 [compound 96],6.17 nM
2,Cc1cc2c(c(C(=O)NC[C@@H]3CCN(CCCc4ccncc4)C[C@H]3O)c1)OCCCO2 [compound 232],0.398 nM
3,CC(=O)CCCN1CC[C@@H](CNC(=O)c2cc(N)cc3c2OCCO3)[C@H](O)C1 [compound 83],14.8 nM
4,N#CCCCN1CC[C@@H](CNC(=O)c2cc(N)cc3c2OCCO3)[C@H](O)C1 [compound 6],57.5 nM
5,CC(C)Nc1cc2c(c(C(=O)NC[C@@H]3CCNC[C@H]3O)c1)OCCCO2 [compound 167],2400 nM
6,CO[C@@H]1CN(CCCO)CC[C@H]1CNC(=O)c1cc(C)cc2c1OCCCO2 [compound 210],5.25 nM

# The next lines start with the values.
row,IC50,SMILES
1,20 nM,COCCCCN1CC[C@@H](CNC(=O)c2cc(CC#N)cc3c2OCCCO3)[C@H](O)C1 [compound 184]
2,81.3 nM,CC(=O)CCCN1CC[C@@H](CNC(=O)c2cc(N)cc3c2OCCCO3)[C@H](O)C1 [compound 60]
3,81.3 nM,CNc1cc2c(c(C(=O)NC[C@@H]3CCN(CCCCOC)C[C@H]3O)c1)OCCCO2 [compound 62]
4,8.91 nM,CCCCN1CC[C@@H](CNC(=O)c2cc(COC)cc3c2OCCCO3)[C@H](O)C1 [compound 119]
5,107 nM,CC(C)Nc1cc2c(c(C(=O)NC[C@@H]3CCN(CCCC#N)C[C@H]3O)c1)OCCCO2 [compound 172]
6,55 nM,COCCCN1CC[C@@H](CNC(=O)c2cc(N)c(Br)c3c2OCCCO3)[C@H](O)C1 [compound 155]

# System: not listed separately
# Assay: Metabolic stability: % metabolism after 60 minutes incubation with active liver microsomes
# Format: in vitro ADME
# Details: compound 5 μM, microsomes 1 mg/ml, NADPH-generating system, 60 minutes at 37 degrees Celsius
# Method: Sub-cellular tissue preparations were made according to Gorrod et al. (Xenobiotica 5:453-462, 1975) by centrifugal separation after mechanical homogenization of tissue. Liver tissue was rinsed in ice-cold 0.1 M Tris-HCl (pH 7.4) buffer to wash excess blood. Tissue was then blotted dry, weighed and chopped coarsely using surgical scissors. The tissue pieces were homogenized in 3 volumes of ice-cold 0.1 M phosphate buffer (pH 7.4).
# Tissue homogenates were centrifuged at 9000×g for 20 minutes at 4° C. The resulting supernatant was stored at −80° C. and is designated ‘S9’.
# The S9 fraction can be further centrifuged at 100.000×g for 60 minutes (4° C.). The resulting supernatant was carefully aspirated, aliquoted and designated ‘cytosol’. The pellet was re-suspended in 0.1 M phosphate buffer (pH 7.4) in a final volume of 1 ml per 0.5 g original tissue weight and designated ‘microsomes’.
# All sub-cellular fractions were aliquoted, immediately frozen in liquid nitrogen and stored at −80° C. until use.
# For the samples to be tested, the incubation mixture contained PBS (0.1M), compound (5 μM), microsomes (1 mg/ml) and a NADPH-generating system (0.8 mM glucose-6-phosphate, 0.8 mM magnesium chloride and 0.8 Units of glucose-6-phosphate dehydrogenase). Control samples contained the same material but the microsomes were replaced by heat inactivated (10 minutes at 95 degrees Celsius) microsomes. Recovery of the compounds in the control samples was always 100%.
# The mixtures were preincubated for 5 minutes at 37 degrees Celsius. The reaction was started at time point zero (t=0) by addition of 0.8 mM NADP and the samples were incubated for 60 minutes (t=60). The reaction was terminated by the addition of 2 volumes of DMSO. Then the samples were centrifuged for 10 minutes at 900×g and the supernatants were stored at room temperature for no longer as 24 hours before analysis. All incubations were performed in duplo. Analysis of the supernatants was performed with LC-MS analysis. Elution of the samples was performed on a Xterra MS C18 (50×4.6 mm, 5 μm, Waters, US). An Alliance 2790 (Supplier: Waters, US) HPLC system was used. Elution was with buffer A (25 mM ammoniumacetate (pH 5.2) in H2O/acetonitrile (95/5)), solvent B being acetonitrile and solvent C methanol at a flow rate of 2.4 ml/min. The gradient employed was increasing the organic phase concentration from 0% over 50% B and 50% C in 5 min up to 100% B in 1 minute in a linear fashion and organic phase concentration was kept stationary for an additional 1.5 minutes. Total injection volume of the samples was 25 μl.
# A Quatro triple quadrupole mass spectrometer fitted with and ESP source was used as detector. The source and the desolvation temperature were set at 120 and 350° C. respectively and nitrogen was used as nebuliser and drying gas. Data were acquired in positive scan mode (single ion reaction). Cone voltage was set at 10 V and the dwell time was 1 second.
# Metabolic stability was expressed as % metabolism of the compound after 60 minutes (equation given as example) of incubation in the presence of active microsomes (E(act))
row,% metabolised compound (compounds of present invention),SMILES
1,12%,COCCCCN1CC[C@@H](CNC(=O)c2cc(CC#N)cc3c2OCCCO3)[C@H](O)C1 [compound 184]

# Same assay, conditions: compound 5 μM, microsomes 1 mg/ml, NADPH-generating system, 60 minutes at 37 degrees Celsius; compound numbers of WO-00/37461
row,SMILES,% metabolised compound (comparative structures of WO-00/37461)
1,"O=C(NC[C@@H]1CCN(CC2CCCO2)C[C@H]1O)c1cc(Cl)cc2c1OCCCO2 (stereo partly shown) [WO-00/37461 Co. No. 122, reference compound]",79%
2,"CC1(CCCN2CC[C@@H](CNC(=O)c3cc(Cl)cc4c3OCCCO4)[C@H](O)C2)OCCO1 [WO-00/37461 Co. No. 124, reference compound]",49.5%
3,"N#CCCCN1CC[C@@H](CNC(=O)c2cc(Cl)cc3c2OCCO3)[C@H](O)C1 [WO-00/37461 Co. No. 74, reference compound]",50.5%
4,"O=C(NC[C@@H]1CCN(CCC2OCCO2)C[C@H]1O)c1cc(Cl)cc2c1OCCCO2 [WO-00/37461 Co. No. 143, reference compound]",63%
5,"O=C(NC[C@@H]1CCN(CCCCO)C[C@H]1O)c1cc(Cl)cc2c1OCCO2 [WO-00/37461 Co. No. 68, reference compound]",10%

# Results, then the molecule that gave them:
row,% metabolised compound (comparative structures of WO-00/37461),SMILES
1,68%,"CCCCN1CC[C@@H](CNC(=O)c2cc(Cl)cc3c2OCCCO3)[C@H](O)C1 [WO-00/37461 Co. No. 119, reference compound]"
2,26%,"O=C(NC[C@@H]1CCN(CCOCCO)C[C@H]1O)c1cc(Cl)cc2c1OCCCO2 [WO-00/37461 Co. No. 128, reference compound]"
3,30%,"COCCCN1CC[C@@H](CNC(=O)c2cc(Cl)cc3c2OCCO3)[C@H](O)C1 [WO-00/37461 Co. No. 67, reference compound]"
4,25%,"COCCCN1CC[C@@H](CNC(=O)c2cc(Cl)cc3c2OCCCO3)[C@H](O)C1 [WO-00/37461 Co. No. 120, reference compound]"
5,23%,"O=C(NC[C@@H]1CCN(CCCCO)C[C@H]1O)c1cc(Cl)cc2c1OCCCO2 [WO-00/37461 Co. No. 160, reference compound]"
6,30%,"CC(=O)CCCN1CC[C@@H](CNC(=O)c2cc(Cl)cc3c2OCCCO3)[C@H](O)C1 [WO-00/37461 Co. No. 121, reference compound]"
7,11%,"O=C(NC[C@@H]1CCN(CCCO)C[C@H]1O)c1cc(Cl)cc2c1OCCCO2 [WO-00/37461 Co. No. 144, reference compound]"
